What was measured:
blackgrass = experiment: Test B pre/postemergence blackgrass; type: in vivo, Alopecurus myosuroides
How it was run: (§1)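 Response is a visual 0-to-10 score relative to untreated plants, where 0 means no effect and 10 means complete control, taken twelve to sixteen days after application. Treatments went onto soil at planting and onto foliage of 1- to 4-leaf plants, using a surfactant-containing non-phytotoxic solvent.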

surinam grass = experiment: Test B pre/postemergence surinam grass; type: in vivo, Brachiaria decumbens
How it was run: as §1

cocklebur = experiment: Test B pre/postemergence cocklebur; type: in vivo, Xanthium strumarium
How it was run: as §1

corn = experiment: Test B pre/postemergence corn; type: in vivo, Zea mays
How it was run: as §1

crabgrass = experiment: Test B pre/postemergence crabgrass; type: in vivo, Digitaria sanguinalis
How it was run: as §1

giant foxtail = experiment: Test B pre/postemergence giant foxtail; type: in vivo, Setaria faberii
How it was run: as §1

morningglory = experiment: Test B pre/postemergence morningglory; type: in vivo, Ipomoea hederacea
How it was run: as §1

pigweed = experiment: Test B pre/postemergence pigweed; type: in vivo, Amaranthus retroflexus
How it was run: as §1

rape = experiment: Test B pre/postemergence rape; type: in vivo, Brassica napus
How it was run: as §1

sugar beet = experiment: Test B pre/postemergence sugar beet; type: in vivo, Beta vulgaris
How it was run: as §1

velvetleaf = experiment: Test B pre/postemergence velvetleaf; type: in vivo, Abutilon theophrasti
How it was run: as §1

wheat = experiment: Test B pre/postemergence wheat; type: in vivo, Triticum aestivum
How it was run: as §1

purple nutsedge = experiment: Test B pre/postemergence purple nutsedge; type: in vivo, Cyperus rotundus
How it was run: as §1

rice = experiment: Test B flood test rice; type: in vivo, Oryza sativa
How it was run: (§2)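 Flood test on plants grown to the 2-leaf stage; treated plants kept in greenhouse twelve to sixteen days, then visually rated against controls on a 0 (no effect) to 10 (complete control) scale.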

smallflower flatsedge = experiment: Test B flood test smallflower flatsedge; type: in vivo, Cyperus difformis
How it was run: as §2

duck salad = experiment: Test B flood test duck salad; type: in vivo, Heteranthera limosa
How it was run: as §2

[1] = Postemergence, Rate 125 g/ha, scale of 0 to 10 where 0 is no effect and 10 is complete control
[2] = Preemergence, Rate 62 g/ha, scale 0 to 10 (0 no effect, 10 complete control)
[3] = Preemergence, Rate 125 g/ha, 0 is no effect, 10 is complete control
[4] = Preemergence, Rate 250 g/ha, scale 0 to 10, 0 is no effect, 10 is complete control
[5] = Preemergence, Rate 500 g/ha, scale 0 to 10 (0 no effect, 10 complete control)
[6] = Rate 62 g/ha, Postemergence, scale of 0 to 10 where 0 is no effect and 10 is complete control
[7] = Rate 250 g/ha, Postemergence, scale 0 to 10, 0 is no effect, 10 is complete control
[8] = Rate 500 g/ha, Postemergence, scale 0 to 10
[9] = Postemergence (flood test species), Rate 125 g/ha, scale of 0 to 10 where 0 is no effect and 10 is complete control
[10] = Rate 62 g/ha, Postemergence section, flood test species, scale of 0 to 10 where 0 is no effect and 10 is complete control
[11] = Rate 250 g/ha, Postemergence (flood test), scale 0 to 10, 0 is no effect, 10 is complete control
[12] = Rate 500 g/ha, listed under Postemergence (flood test species), scale 0 to 10

Question: What does the source list for `CC(C)N(C(=O)n1oc(=O)n(Cc2ccccc2Cl)c1=O)C1=CCCCC1` [Compound 145]?
Answer: Blackgrass plant response rating (blackgrass; [1]): 1; Blackgrass plant response rating (blackgrass; [2]): 0; Blackgrass plant response rating (0 to 10 scale) (blackgrass; [3]): 1; Blackgrass plant response rating (blackgrass; [4]): 4; Blackgrass plant response rating (blackgrass; [5]): 7; Blackgrass plant response rating (blackgrass; [6]): 0; Plant response rating, Blackgrass (blackgrass; [7]): 5; Blackgrass plant response rating (blackgrass; [8]): 6; B. signalgrass plant response rating (surinam grass; [1]): 0; B. signalgrass plant response rating (surinam grass; [2]): 0; B. signalgrass plant response rating (0 to 10 scale) (surinam grass; [3]): 0; B. signalgrass plant response rating (surinam grass; [4]): 3; B. signalgrass plant response rating (surinam grass; [5]): 5; B. signalgrass plant response rating (surinam grass; [6]): 0; Plant response rating, B. signalgrass (surinam grass; [7]): 0; B. signalgrass plant response rating (surinam grass; Rate 500 g/ha, Postemergence, scale of 0 to 10 where 0 is no effect and 10 is complete control): 2; Cocklebur plant response rating (cocklebur; [1]): 0; Cocklebur plant response rating (cocklebur; [2]): 0; Cocklebur plant response rating (0 to 10 scale) (cocklebur; [3]): 0; Cocklebur plant response rating (cocklebur; [4]): 0; Cocklebur plant response rating (cocklebur; [5]): 0; Cocklebur plant response rating (cocklebur; [6]): 0; Plant response rating, Cocklebur (cocklebur; [7]): 0; Cocklebur plant response rating (cocklebur; [8]): 0; Corn plant response rating (corn; [1]): 0; Corn plant response rating (corn; [2]): 0; Corn plant response rating (0 to 10 scale) (corn; [3]): 0; Corn plant response rating (corn; [4]): 0; Corn plant response rating (corn; [5]): 0; Corn plant response rating (corn; [6]): 0; Plant response rating, Corn (corn; [7]): 0; Corn plant response rating (corn; [8]): 0; Crabgrass plant response rating (crabgrass; [1]): 3; Crabgrass plant response rating (crabgrass; [2]): 0; Crabgrass plant response rating (0 to 10 scale) (crabgrass; [3]): 4; Crabgrass plant response rating (crabgrass; [4]): 4; Crabgrass plant response rating (crabgrass; [5]): 8; Crabgrass plant response rating (crabgrass; [6]): 2; Plant response rating, Crabgrass (crabgrass; [7]): 8; Crabgrass plant response rating (crabgrass; [8]): 8; Giant foxtail plant response rating (giant foxtail; [1]): 0; Giant foxtail plant response rating (giant foxtail; [2]): 0; Giant foxtail plant response rating (0 to 10 scale) (giant foxtail; [3]): 3; Giant foxtail plant response rating (giant foxtail; [4]): 5; Giant foxtail plant response rating (giant foxtail; [5]): 8; Giant foxtail plant response rating (giant foxtail; [6]): 0; Plant response rating, Giant foxtail (giant foxtail; [7]): 2; Giant foxtail plant response rating (giant foxtail; [8]): 4; Morningglory plant response rating (morningglory; [1]): 8; Morningglory plant response rating (morningglory; [2]): 0; Morningglory plant response rating (0 to 10 scale) (morningglory; [3]): 0; Morningglory plant response rating (morningglory; [4]): 0; Morningglory plant response rating (morningglory; [5]): 1; Morningglory plant response rating (morningglory; [6]): 6; Plant response rating, Morningglory (morningglory; [7]): 10; Morningglory plant response rating (morningglory; [8]): 10; Redroot pigweed plant response rating (pigweed; [1]): 0; Redroot pigweed plant response rating (pigweed; [2]): 0; Redroot pigweed plant response rating (0 to 10 scale) (pigweed; [3]): 0; Redroot pigweed plant response rating (pigweed; [4]): 2; Redroot pigweed plant response rating (pigweed; [5]): 4; Redroot pigweed plant response rating (pigweed; [6]): 0; Plant response rating, Redroot pigweed (pigweed; [7]): 0; Redroot pigweed plant response rating (pigweed; [8]): 2; Rape plant response rating (rape; [1]): 2; Rape plant response rating (rape; [2]): 0; Rape plant response rating (0 to 10 scale) (rape; [3]): 0; Rape plant response rating (rape; [4]): 0; Rape plant response rating (rape; [5]): 0; Rape plant response rating (rape; [6]): 0; Plant response rating, Rape (rape; [7]): 3; Rape plant response rating (rape; [8]): 3; Sugarbeets plant response rating (sugar beet; [1]): 0; Sugarbeets plant response rating (sugar beet; [2]): 0; Sugarbeets plant response rating (0 to 10 scale) (sugar beet; [3]): 0; Sugarbeets plant response rating (sugar beet; [4]): 0; Sugarbeets plant response rating (sugar beet; [5]): 3; Sugarbeets plant response rating (sugar beet; [6]): 0; Plant response rating, Sugarbeets (sugar beet; [7]): 0; Sugarbeets plant response rating (sugar beet; [8]): 0; Velvetleaf plant response rating (velvetleaf; [1]): 0; Velvetleaf plant response rating (velvetleaf; [2]): 0; Velvetleaf plant response rating (0 to 10 scale) (velvetleaf; [3]): 0; Velvetleaf plant response rating (velvetleaf; [4]): 0; Velvetleaf plant response rating (velvetleaf; [5]): 5; Velvetleaf plant response rating (velvetleaf; [6]): 0; Plant response rating, Velvetleaf (velvetleaf; [7]): 0; Velvetleaf plant response rating (velvetleaf; [8]): 2; Wheat plant response rating (wheat; [1]): 0; Wheat plant response rating (wheat; [2]): 0; Wheat plant response rating (0 to 10 scale) (wheat; [3]): 0; Wheat plant response rating (wheat; [4]): 0; Wheat plant response rating (wheat; [5]): 0; Wheat plant response rating (wheat; [6]): 0; Plant response rating, Wheat (wheat; [7]): 0; Wheat plant response rating (wheat; [8]): 0; Nutsedge plant response rating (purple nutsedge; [1]): 0; Nutsedge plant response rating (purple nutsedge; [2]): 0; Nutsedge plant response rating (0 to 10 scale) (purple nutsedge; [3]): 0; Nutsedge plant response rating (purple nutsedge; [4]): 0; Nutsedge plant response rating (purple nutsedge; [5]): 0; Nutsedge plant response rating (purple nutsedge; [6]): 0; Plant response rating, Nutsedge (purple nutsedge; [7]): 0; Nutsedge plant response rating (purple nutsedge; [8]): 0; Rice plant response rating (rice; [9]): 0; Rice plant response rating (rice; [10]): 0; Plant response rating, Rice (rice; [11]): 0; Rice plant response rating (rice; [12]): 0; S. Flatsedge plant response rating (smallflower flatsedge; [9]): 0; S. Flatsedge plant response rating (smallflower flatsedge; [10]): 0; Plant response rating, S. Flatsedge (smallflower flatsedge; [11]): 5; S. Flatsedge plant response rating (smallflower flatsedge; [12]): 8; Ducksalad plant response rating (duck salad; [9]): 0; Ducksalad plant response rating (duck salad; [10]): 0; Plant response rating, Ducksalad (duck salad; [11]): 0; Ducksalad plant response rating (duck salad; [12]): 2

Source: patent US6737383B1, “Herbicidal oxadiazolidines” (priority 1999, dated 2004)
